Measured values as given in US20250206716A1, “Crystal form of Vonoprazan pyroglutamate and preparation method therefor” (HARWAY PHARMA CO., LTD, priority 2022, published 2025).
pIC50: −log10 of the molar value. Counter-ions that a name gives are not always drawn.

Key:
[1] = test system: histamine-induced gastric acid secretion; assay: Effect on histamine-induced gastric acid secretion in rats; assay type: in vivo, SD rats
From the text: Surgical modeling: Rats were anesthetized with intraperitoneal injection of ethyl carbamate at a dose of 1.5 g/kg. Rats under complete anesthesia were shaved from the neck and abdomen, and were intubated to maintain airway patency during surgery. The cardiac perfusion tube was orally inserted about 1 cm into the stomach of rats, and the other end of the cardiac perfusion tube was connected to a constant flow pump. A small incision was made below the xiphoid cartilage to find the duodenum, an incision was made transversely, the end of the collection tube of gastric pyloric samples was passed along the duodenum into the stomach about 1 cm through the wound, the duodenum was tightened with the collection tube of gastric pyloric samples with a suture, and the other end of the duodenal incision was tightened. Gastric lavage remnants were rapidly flushed along the esophago-cardia cannula with 150 mL of 37° C. prewarmed saline, outflowed through the collection tube of gastric pylorus samples, and the abdominal wall was sutured to the skin. Perfusion was continued with normal saline at a rate of 1 mL/min for 30 min, the other end of the col-lection tube for gastric pyloric samples was left in vitro, gastric juice samples were collected in conical flasks (one sample per 20 min of col-lection), and two basal gastric juice samples were collected, at which time basal gastric acid secretion reached a steady state.
Histamine-induced gastric acid secretion: Histamine was administered to rats by continuous tail vein injection with a microinjection pump at a dose of 20 μmol/kg/hr. Gastric acid was collected after 80 min, and after three time points, histamine secretion reached a steady state in rats, which was grouped according to the value of gastric acid secretion after histamine administration in rats, and candidate drugs or vehicle controls were administered based on the protocol. […] The details are as follows:
The required amount of Vonoprazan fumarate was weighed, added with an appropriate amount of 0.5% CMC-Na, stirred, sonicated to obtain a homogeneous suspension, and diluted sequentially to the corresponding concentration according to the concentration required by the protocol.
The required amount of HW-N2001 was weighed, added with appropriate physiological saline, and mixed thoroughly to obtain a clear solution, and the pH was adjusted to a range of 3.2 to 3.8. Based on the concentrations required by the protocol, the corresponding concentrations were successively diluted.
One hundred and eighteen of 130 SD rats in good health were selected and randomly divided into 8 groups according to body weight and base-line value after histamine administration after the end of the adaptation period, as detailed in the table below.
Collected gastric juice samples were taken and titrated with 0.01 N sodium hydroxide solution by a basic burette to PH7 as the endpoint, with the phenolphthalein indicator as a color indicator. The titration volume was measured and the acid secretion is calculated according to the following formula: acid secretion (μEq)=volume of NaOH (mL)×10^−3×0.01 mol/L×10^6.
Two basal gastric juice samples were collected, and an infusion extension tube prematurely inhaled with histamine was connected to the indwelling needle of tail vein in rats after basal gastric acid levels were stabilized. The syringe pump was opened, and histamine was calculated according to the dose of 20 μmol/kg/hr and the intravenous drip rate of each animal in the syringe pump was set. Gastric acid samples after histamine administration were collected after 80 minutes of continuous injection of histamine solution.

[2] = molecular target: T1, H^+K^+-ATPase (Sus scrofa, UniProt P19156); assay: Inhibition of H^+K^+-ATPase in microsomal vesicles of porcine gastric mucosa; assay type: biochemical; conditions: pH 6.8, inorganic phosphorus readout
T1 construct: H^+K^+ATPase was extracted from porcine gastric mucosal microsomal vesicles by iPhase; tissue iPhase; host or cells: porcine gastric mucosa, microsomal vesicles
From the text: Test method: H^+K^+-ATPase is an ATPase localized in gastric mucosal parietal cells and activated exclusively by K^+. In this experiment, H^+K^+-ATPase was extracted from the microsomal vesicles of porcine gastric mucosa, and ATPase could decompose ATP to generate ADP and inorganic phosphorus. The test article combined H^+K^+-ATPase and inhibited its activity. The level of ATPase activity was judged by measuring the amount of inorganic phosphorus, and the inhibitory effect of the test article was determined.
H^+K^+ATPase was extracted from porcine gastric mucosal microsomal vesicles by iPhase.
100 mM TRIS-HCL (PH 6.8): 100 μL 1M TRIS-HCL was added to 900 μl ddH2O and mixed well.
37.5 mM MgCl2: 50 mg MgCl2 was added to […] ddH2O and mixed well. 200 mM KCl: 500 mg KCl was added to 33.5 mL ddH2O and mixed well. 10 mM nigericin and valinomycin: 669 μl and 890 μL DMSO were added and mixed, dispensed into 1 μL nigericin and 5 μl valinomycin per tube, and stored at −20° C.
0.1 mg/ml microsomal vesicles: Protein concentrations were determined upon arrival and dispensed, stored at −80° C., and diluted with 5 mM TRIS-HCL for use.
Control compound: TAK438 was prepared as a 10 mM stock solution in DMSO and dispensed in 1 μL per tube.
Test compound: Product A and crystal form I were prepared as 10 mM stock solutions in ddH2O, and dispensed in 1 μL per tube.
With 20 μM (or 40 μM) as the highest concentration, the control compound and the test compound were diluted stepwise 3-fold with DMSO and ddH2O, respectively, to obtain the samples to be tested at 6 (or 7 or 8) concentration gradients.
Water bath at 37° C. for 30 min, 16.5 μL ATP added and mixed well, and water bath at 37° C. for 30 min
The chromogenic agent was prepared based on the instructions of *H^+K^+ ATP kit (Nanjing Jiancheng).
Per the enzymatic reaction volume of 150 μL, 45 μl of chromogen was added and mixed well, allowed to stand for 2 min, and the absorbance light signal at 660 nm was read by a microplate reader.
• 1) The inhibition rate was calculated according to the following formula: […]

[3] = Deliquescence test (storage at 40° C. and 75% relative humidity); assay type: physicochemical; parameters: key: “Absence of deliquescence” refers to that no moisture absorption is observed on the sample surface; Slight: “slight deliquescence” refers to that moisture absorption is observed on the sample surface; Obvious: “obvious deliquescence” refers to that lubrication can be observed on the sample surface
Method: • (1) Deliquescence test: The product A, crystal form I, and TAK-438 were stored at 40° C. and 75% relative humidity and observed for deliquescence for 30 days, with results recorded every 10 days as detailed in the table below.
(§1) “Absence of deliquescence” refers to that no moisture absorption is observed on the sample surface, “slight deliquescence” refers to that moisture absorption is observed on the sample surface, and “obvious deliquescence” refers to that lubrication can be observed on the sample surface. • (2) Thermal stability test: The product A and crystal form I were stored separately in open containers at 60° C. and tested for storage stability after 30 days (Day 31). Samples at initial and after 30 days of storage were tested for purity by HPLC with three replicates per sample and averaged and the results are presented in the following table.

[4] = Thermal stability test (open containers at 60° C., purity by HPLC); assay type: physicochemical; conditions: mean of three replicates; for Purity (%), Day 31: HPLC purity after 30 days in open container at 60° C.; for Purity (%), Initial point: HPLC purity before storage
Method: The chromatographic conditions for HPLC purity testing of the product involved in the present invention are as follows:
Column: Ultimate XB-C18, column length: 150 mm, inner diameter: 4.6 mm, particle size: 5 μm
Flow rate: 1.2 mL/min; column temperature: 30° C.; wavelength: 210 nm; injection volume: 20 μL; solvent: acetonitrile-water (volume ratio 5:95)
Mobile phase A: acetonitrile-0.02 mol/L potassium dihydrogen phosphate (adjusted to pH 2.5 with phosphoric acid) (volume ratio 5:95)
Mobile phase B: methanol-acetonitrile-0.02 mol/L potassium dihydrogen phosphate (adjusted to pH 2.5 with phosphoric acid) (volume ratio 7:63:30)
The proportions of mobile phases A and B over time are as follows:
as §1

[5] = 0.375 mg/kg i.v., 60 min after administration
[6] = 0.375 mg/kg i.v., 180 min after administration
[7] = 0.75 mg/kg i.v., 20 min after administration
[8] = 1.5 mg/kg i.v., 20 min after administration
[9] = 1.5 mg/kg i.v., 80 min after administration
[10] = 1.5 mg/kg i.v., 180 min after administration
[11] = 2 mg/kg i.d., 60 min after administration
[12] = 2 mg/kg i.d., 180 min after administration
[13] = 4 mg/kg i.d., 40 min after administration
[14] = 4 mg/kg i.d., 180 min after administration

T1 sequence (P19156 2-1034 limits assumed): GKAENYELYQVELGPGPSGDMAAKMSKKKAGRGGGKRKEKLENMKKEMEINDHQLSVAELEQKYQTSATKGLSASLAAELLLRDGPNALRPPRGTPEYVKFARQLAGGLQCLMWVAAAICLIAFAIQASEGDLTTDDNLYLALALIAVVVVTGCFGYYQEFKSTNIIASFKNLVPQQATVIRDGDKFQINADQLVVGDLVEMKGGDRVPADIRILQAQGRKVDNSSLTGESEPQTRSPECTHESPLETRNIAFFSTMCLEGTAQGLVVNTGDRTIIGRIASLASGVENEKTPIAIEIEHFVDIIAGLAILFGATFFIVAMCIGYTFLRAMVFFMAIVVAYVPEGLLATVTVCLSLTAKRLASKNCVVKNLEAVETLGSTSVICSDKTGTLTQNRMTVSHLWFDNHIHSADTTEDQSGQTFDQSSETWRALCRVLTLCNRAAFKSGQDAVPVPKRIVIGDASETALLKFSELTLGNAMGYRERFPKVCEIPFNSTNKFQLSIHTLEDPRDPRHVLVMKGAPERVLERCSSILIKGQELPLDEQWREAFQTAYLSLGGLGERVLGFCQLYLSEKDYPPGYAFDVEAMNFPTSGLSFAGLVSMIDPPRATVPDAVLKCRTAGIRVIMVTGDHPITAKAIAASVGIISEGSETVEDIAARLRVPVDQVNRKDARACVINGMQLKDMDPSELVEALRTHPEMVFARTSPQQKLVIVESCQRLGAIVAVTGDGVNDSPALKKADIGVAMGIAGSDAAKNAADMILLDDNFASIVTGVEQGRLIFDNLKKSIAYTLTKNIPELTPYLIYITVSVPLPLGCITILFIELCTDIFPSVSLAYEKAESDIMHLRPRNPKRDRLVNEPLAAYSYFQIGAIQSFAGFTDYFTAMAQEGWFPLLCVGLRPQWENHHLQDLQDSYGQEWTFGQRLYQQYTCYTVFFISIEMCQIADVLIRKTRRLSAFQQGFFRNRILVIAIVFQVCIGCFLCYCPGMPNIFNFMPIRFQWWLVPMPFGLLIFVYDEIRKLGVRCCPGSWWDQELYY
T1 sequence (P18434 whole entry partner): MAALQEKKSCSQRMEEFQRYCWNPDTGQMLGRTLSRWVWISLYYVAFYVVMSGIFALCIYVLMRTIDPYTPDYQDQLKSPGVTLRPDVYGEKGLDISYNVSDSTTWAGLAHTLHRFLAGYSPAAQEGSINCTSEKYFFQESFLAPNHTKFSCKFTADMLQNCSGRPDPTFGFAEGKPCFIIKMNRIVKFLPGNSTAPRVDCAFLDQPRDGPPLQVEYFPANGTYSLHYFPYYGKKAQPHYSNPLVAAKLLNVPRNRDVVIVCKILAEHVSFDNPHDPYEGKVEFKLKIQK

In the case of “5-(2-fluorophenyl)-N-methyl-1-(3-pyridylsulfonyl)-1H-pyrrole-3-methylamine pyroglutamate [Crystal form I]”, the Gastric acid secretion [1, 5] was 39.15±8.54 μEq HCl/20 min, the “Inhibition rate of gastric acid secretion” value (shortened to “Inhibition rate”) [1, 5] was 4.34%±1.28 and the Gastric acid secretion [1, 6] was 28.46±5.71 μEq HCl/20 min. The “Inhibition rate” value [1, 6] was 27.52%±1.43, the Gastric acid secretion [1, 7] was 37.53±9.87 μEq HCl/20 min and the “Inhibition rate” value [1, 7] was 11.6%±0.82. For the same compound, the “Inhibition rate” value ([1]; 0.75 mg/kg i.v., 180 min after administration) was 73.68%±1.47, the Gastric acid secretion [1, 8] was 25.67±10.15 μEq HCl and the “Inhibition rate” value [1, 8] was 33.28%±0. The Gastric acid secretion [1, 9] was 3.4±1.18 μEq HCl, the “Inhibition rate” value [1, 9] was 89.64%±0 and the Gastric acid secretion [1, 10] was 2.2±0.56 μEq HCl. The “Inhibition rate” value [1, 10] was 93.56%±0.09, the “Time after administration at which pharmacodynamic effect reached a stable state” value ([1]; 0.75 and 1.5 mg/kg i.v.) was 60 to 100 min and the “Time after administration at which pharmacodynamic effect was gradually exerted” value ([1]; 0.75 and 1.5 mg/kg i.v.) was 20 min. For the same compound, the ID50 ([1]; intravenous administration, 180 min after administration) was 0.53 mg/kg, the pIC50 [2] was 7.39 and the “Deliquescence, Day 10” value [3] was “Absence of”. For the same compound, the “Deliquescence, Day 20” value [3] was “Slight”, the “Deliquescence, Day 30” value [3] was “Obvious” and the “Purity (%), Day 31” value [4] was 99.2%. For the same compound, the “Purity (%), Initial point” value [4] was 99.8%.

For “5-(2-fluorophenyl)-N-methyl-1-(3-pyridylsulfonyl)-1H-pyrrole-3-methylamine pyroglutamate [Product A]”, the pIC50 [2] was 7.27, the “Deliquescence, Day 10” value [3] was “Slight” and the “Deliquescence, Day 20” value [3] was “Obvious”. For the same compound, the “Deliquescence, Day 30” value [3] was “Obvious”, the “Purity (%), Day 31” value [4] was 94.6% and the “Purity (%), Initial point” value [4] was 98.0%.

For `CNCc1cc(-c2ccccc2F)n(S(=O)(=O)c2cccnc2)c1` [TAK-438, Vonoprazan fumarate], the “Gastric acid secretion after administration vs vehicle” value ([1]; 1 mg/kg i.d., rats) was “not significantly decreased”, the “Time after administration at which pharmacodynamic effect was gradually exerted” value ([1]; 2 mg/kg i.d.) was 60 min and the Gastric acid secretion [1, 11] was 33.21±15.63 μEq HCl/20 min. The “Inhibition rate” value [1, 11] was 13.71%±2.12, the Gastric acid secretion [1, 12] was 16.21±14.46 μEq HCl/20 min and the “Inhibition rate” value [1, 12] was 57.48%±2.27. The “Time after administration at which pharmacodynamic effect was gradually exerted” value ([1]; 4 mg/kg i.d.) was 140 min, the Gastric acid secretion [1, 13] was 33.18±11.15 μEq HCl/20 min and the “Inhibition rate” value [1, 13] was 12.47%±1.13. The Gastric acid secretion [1, 14] was 4.41±4.02 μEq HCl/20 min, the “Inhibition rate” value [1, 14] was 87.03%±0.81 and the “Time at which strongest efficacy was reached” value ([1]; duodenal administration) was 180 min. The ID50 ([1]; duodenal administration, 180 min) was 1.87 mg/kg, the pIC50 [2] was 7.38 and the “Deliquescence, Day 10” value [3] was “Absence of”. For the same compound, the “Deliquescence, Day 20” value [3] was “Absence of” and the “Deliquescence, Day 30” value [3] was “Absence of”.
